The subject of one data set is DLD-1 BRCA2(−/−) cells. As to the kind of experiment: Cell growth inhibition assay (CellTiter-Glo), DLD-1 BRCA2(−/−). The settings on record: Homo sapiens, DLD-1, 168 h; cell viability, CellTiter Glo 2.0, 7 days. The data set is classed as cell-based. Here is the method: The objective of this study is to evaluate the effect of compound disclosed herein on cell proliferation through the cell viability assay in DLD-1 BRCA2(−/−) and parental isogenic pair and MDA-MB-436 (mutated BRCA1) cell lines.
DLD-1 BRCA2(−/−) and parental isogenic pair were cultured in RPMI 1640 supplemented with 10% fetal bovine serum (FBS), and MDA-MB-436 cells were cultured in DMEM supplemented with 10% FBS. Both are culture at 37° C. with 5% CO2. […] The cells were seeded into the plate in the density of 50 cells/well (DLD-1 parental), 200 cells/well (DLD-1 BRCA2−/−), or 500 cells/well (MDA-MB-436). After a short spun, the cells were cultured in a well moisturized incubator at 37° C. with 5% CO2 for 7 days without disturbance. The cell viability was measured by CellTiter Glo 2.0 assay kit (Promega, G9243), and growth inhibition rate was calculated and plotted against final compound concentration, and the data were fitted in Xfit to generate IC50.
(In general: In ATP-based viability assays light output follows the ATP content of the culture.)

Data set [1] concerns MDA-MB-436 (mutated BRCA1) cells. As to the kind of experiment: Cell growth inhibition assay (CellTiter-Glo), MDA-MB-436. The format is cell-based. The settings on record: Homo sapiens, MDA-MB-436, 168 h; cell viability, CellTiter Glo 2.0, 7 days. From the text: (§1) The objective of this study is to evaluate the effect of compound disclosed herein on cell proliferation through the cell viability assay in DLD-1 BRCA2(−/−) and parental isogenic pair and MDA-MB-436 (mutated BRCA1) cell lines. The CellTiter-Glo (CTG) based cell viability assay is designed to determine the number of viable cells in the culture because of compound effect, by quantifying ATP, which indicates the presence of metabolically active cells.
(§2) DLD-1 BRCA2(−/−) and parental isogenic pair were cultured in RPMI 1640 supplemented with 10% fetal bovine serum (FBS), and MDA-MB-436 cells were cultured in DMEM supplemented with 10% FBS. Both are culture at 37° C. with 5% CO2. Invention compounds were distributed to the 384 well plate (Corning, 3764) using Echo acoustic liquid handler to form a 1:3 serially diluted final concentration with top dose of 10 or 30 μM. The cells were seeded into the plate in the density of 50 cells/well (DLD-1 parental), 200 cells/well (DLD-1 BRCA2−/−), or 500 cells/well (MDA-MB-436). After a short spun, the cells were cultured in a well moisturized incubator at 37° C. with 5% CO2 for 7 days without disturbance. The cell viability was measured by CellTiter Glo 2.0 assay kit (Promega, G9243), and growth inhibition rate was calculated and plotted against final compound concentration, and the data were fitted in Xfit to generate IC50.

Another data set concerns the target BCRP (Homo sapiens (Human), UniProt Q9UNQ0). Kind of data set: In vitro human transporter efflux, MDCKII cells expressing BCRP. The data set is classed as in vitro ADME. The settings on record: for Papp A→B at 2 h, 10 μM: pH 7.4, apical-to-basolateral, pH7.4, read-out: BCRP Papp AB; for Papp A→B at 2 h, 10 μM / Papp B→A at 2 h, 10 μM: 2-hour incubation; for Papp B→A at 2 h, 10 μM: pH 7.4, basolateral-to-apical, pH7.4, read-out: BCRP Papp BA; for efflux ratio at 2 h, 10 μM: pH 7.4, efflux ratio Papp BA/Papp AB. Here is the method: (§3) Madin-Darby canine kidney (MDCKII) cells expressing either MDR1 or BCRP were seeded onto Corning HTS Transwell® 96-well polycarbonate permeable (0.4 μm pore) supports at a density of 545,000 cells/cm^2. Cells were incubated for 4-8 days prior to assay, and monolayer integrity was assessed by measuring transepithelial electrical resistance (TEER). […] The final organic solvent concentration was 0.5% (v/v). Bidirectional (apical-to-basolateral and basolateral-to-apical) flux of the test and reference compounds was determined over a 2-hour incubation at 37° C. and 5% CO2 with a relative humidity of 95%. At the end of the incubation, samples from the apical and basolateral side were taken and then precipitated with acetonitrile containing internal standard. After centrifugation at 3200×g, supernatants were diluted 1:1 (v/v) with water and subjected to analysis via HPLC-MS/MS.
(§4) Apparent permeability (Papp, ×10^−6 cm/s) was calculated for all transport assays using the following equation: […]
(§5) Efflux ratio was determined by calculating the ratio of the Papp in the basolateral-to-apical direction to the Papp in the apical-to-basolateral direction using the following equation: […]

The subject of a further data set is DLD-1 parental cells. Kind of data set: Cell growth inhibition assay (CellTiter-Glo), DLD-1 parental. The format is cell-based. The settings on record: Homo sapiens, DLD-1, 168 h; cell viability, CellTiter Glo 2.0, 7 days.
Excerpt: as §1, §2

A further data set concerns the target MDR1 (Homo sapiens (Human), UniProt P08183). As to the kind of experiment: In vitro human transporter efflux, MDCKII cells expressing MDR1. The format is in vitro ADME. The settings on record: for Papp A→B at 2 h, 10 μM: MDCK-MDR1, pH 7.4, apical-to-basolateral, pH7.4, read-out: MDCK-MDR1 Papp AB; for Papp A→B at 2 h, 10 μM / Papp B→A at 2 h, 10 μM: 2-hour incubation; for Papp B→A at 2 h, 10 μM: MDCK-MDR1, pH 7.4, basolateral-to-apical, pH7.4, read-out: MDCK-MDR1 Papp BA; for efflux ratio at 2 h, 10 μM: MDCK-MDR1, pH 7.4, efflux ratio Papp BA/Papp AB. As to the method:
as §3, §4, §5

Data set [2] is described as follows: hHEP stability, predicted human hepatic clearance. The format is in vitro ADME. The settings on record: well-stirred model, 0.5×10^6 viable cells/mL. Here is the method:
Working stocks of individual test articles were prepared at concentrations of 100 μM by diluting 10 mM stocks prepared in DMSO 100-fold (v:v) into ACN/H2O (50/50, v:v). Human cryopreserved hepatocytes were thawed in a 37° C. water bath in <2 min., suspended in thawing media, and then centrifuged at 100×g for 10 min. Thawing media was aspirated, and pelleted hepatocytes were resuspended into incubation media at 1.5×10^6 cells/mL. Cell viability was determined using an Acridine Orange/Propidium Iodine stain, and hepatocytes were further diluted with incubation media to 0.5×10^6 viable cells/mL. Hepatocyte aliquots of 198 μL were added to wells of a 96-well plate, and test article incubations were initiated by the addition of 2 μL of 100 μM working stocks. Plates were incubated at 37° C. in a 5% CO2 atmosphere at 95% relative humidity on an orbital shaker at 300 rpm. Incubations were performed in duplicate. Following incubation, aliquots of individual reactions were terminated by addition of ACN containing internal standards at 0, 30-, 60-, 90-, 120-, and 240-min. Precipitated protein was pelleted via refrigerated centrifugation. Supernatants were diluted into an equal volume of pure water and mixed well prior to analysis via LC-MS/MS. In vitro intrinsic clearances (CLint) in μL/min/10^6 cells were determined for each incubation from calculated in vitro half-lives determined using a standard log-linear regression approach. In vitro CLint values were scaled up using the following physiological scaling factors: 99×10^6 cells/g human liver and 25.7 g human liver/kg body weight.

Data set [3] in a line: HLM stability, predicted human hepatic clearance. The format is in vitro ADME. The settings on record: well-stirred model, 1 μM, 0.5 mg/mL microsomal protein, NADPH. As to the method:
Working stocks of individual test articles were prepared at a concentration of 100 μM by diluting 10 mM stocks prepared in DMSO 100-fold (v:v) into ACN. Thawed hepatic microsomes were suspended in 100 mM potassium phosphate buffer, pH 7.4 to a microsomal protein concentration of 0.562 mg/mL. Diluted microsomes were combined with a solution of 10 mM NADPH, and the mixture was pre-warmed to 37° C. for 8 min. Reactions were initiated by addition of the test article working stocks to achieve a final test article concentration of 1 μM. Final microsomal protein and NADPH concentrations were 0.5 mg/mL and 1 mM, respectively. Incubations containing NADPH were run in duplicate. Test article losses mediated by non-CYP mechanisms were evaluated in a parallel set of incubations run in the absence of NADPH. Incubations lacking NADPH consisted of 1 replicate per test article. Following incubation in a 37° C. water bath, aliquots of individual reactions were quenched with cold ACN containing internal standards at […], 15-, 30-, 60-, 90-, and 120-min. Precipitated protein was pelleted via refrigerated centrifugation. Supernatants were diluted into an equal volume of pure water and mixed well prior to analysis via LC-MS/MS. In vitro intrinsic clearances (CLint) in μL/min/mg were determined for each incubation from calculated in vitro half-lives determined using a standard log-linear regression approach. In vitro CLint values were scaled up using the following physiological scaling factors: 40 mg microsomal protein/g human liver and 25.7 g human liver/kg body weight.

The target of a further data set is PARP2 (Homo sapiens (Human), UniProt Q9UGN5). Kind of data set: Biochemical fluorescence polarization (FP) assay, PARPi-FL displacement, PARP2. The data set is classed as binding. The settings on record: 20 nM protein, 3 nM PARPi-FL, 4 h at room temperature. As to the method: (§6) To characterize our compounds, we utilized an assay measuring the displacement of a commercially available fluorescently labeled PARP 1/2 inhibitor (PARPi-FL, Tocris Biosciences, #6461) as exemplified in assays performed in WO2014/064149 and WO2021/013735A1. The assay was performed utilizing the following method: Compounds were dissolved in DMSO an Echo550 liquid handler was utilized to make serial dilations in the desired concentration range in Optiplate-384F plates. 100% DMSO was used for the high (with protein) and low (without protein) control samples. 20 nL of compound or DMSO alone was added to individual assay plate wells. […] The PARPi-FL was then added at a final concentration of 3 nM. The assay plate is centrifuged at 1000 rpm for 1 min and incubated for 4 h at room temperature. […] XLFit (equation 201) is used to calculate a reported IC50 for each compound.
(Polarisation of emitted light reports the rotation of a fluorescent probe.)

A further data set addresses PARP1 (Homo sapiens (Human), UniProt P09874). Kind of data set: Biochemical fluorescence polarization (FP) assay, PARPi-FL displacement, PARP1. The format is binding. The settings on record: 20 nM protein, 3 nM PARPi-FL, 4 h at room temperature. As to the method: as §6

Sequence of MDR1 (P08183 whole entry): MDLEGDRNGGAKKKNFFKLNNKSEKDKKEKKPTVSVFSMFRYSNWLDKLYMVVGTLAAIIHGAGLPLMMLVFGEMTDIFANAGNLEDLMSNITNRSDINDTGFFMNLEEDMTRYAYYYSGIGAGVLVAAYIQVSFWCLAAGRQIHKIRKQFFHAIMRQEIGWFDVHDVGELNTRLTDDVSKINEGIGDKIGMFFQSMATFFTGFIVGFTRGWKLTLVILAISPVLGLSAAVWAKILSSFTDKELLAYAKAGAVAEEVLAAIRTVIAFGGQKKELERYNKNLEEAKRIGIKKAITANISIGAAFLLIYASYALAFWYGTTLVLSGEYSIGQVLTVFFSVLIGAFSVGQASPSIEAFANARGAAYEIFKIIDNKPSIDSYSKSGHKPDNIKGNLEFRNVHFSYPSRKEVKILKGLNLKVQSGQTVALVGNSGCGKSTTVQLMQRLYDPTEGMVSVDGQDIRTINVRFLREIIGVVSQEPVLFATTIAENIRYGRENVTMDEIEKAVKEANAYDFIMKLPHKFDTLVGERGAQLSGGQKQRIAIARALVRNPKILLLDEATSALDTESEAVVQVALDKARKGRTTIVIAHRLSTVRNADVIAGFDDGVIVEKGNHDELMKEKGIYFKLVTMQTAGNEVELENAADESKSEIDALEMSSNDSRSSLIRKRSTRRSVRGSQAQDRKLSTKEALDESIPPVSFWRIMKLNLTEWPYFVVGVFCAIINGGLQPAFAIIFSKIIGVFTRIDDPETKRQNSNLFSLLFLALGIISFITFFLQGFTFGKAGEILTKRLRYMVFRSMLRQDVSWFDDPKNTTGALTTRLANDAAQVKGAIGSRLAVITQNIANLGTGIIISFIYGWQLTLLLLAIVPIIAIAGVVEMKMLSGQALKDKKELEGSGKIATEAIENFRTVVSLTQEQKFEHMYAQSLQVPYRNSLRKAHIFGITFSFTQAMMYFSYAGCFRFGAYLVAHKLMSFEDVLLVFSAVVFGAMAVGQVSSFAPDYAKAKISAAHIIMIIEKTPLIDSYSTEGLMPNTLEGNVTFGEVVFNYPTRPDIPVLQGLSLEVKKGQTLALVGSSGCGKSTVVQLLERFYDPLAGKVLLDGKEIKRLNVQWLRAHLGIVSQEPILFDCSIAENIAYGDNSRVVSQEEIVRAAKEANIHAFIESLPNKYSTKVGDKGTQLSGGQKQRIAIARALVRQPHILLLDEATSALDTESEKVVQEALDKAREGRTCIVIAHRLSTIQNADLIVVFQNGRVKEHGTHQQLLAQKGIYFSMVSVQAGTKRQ
Sequence of BCRP (Q9UNQ0 whole entry): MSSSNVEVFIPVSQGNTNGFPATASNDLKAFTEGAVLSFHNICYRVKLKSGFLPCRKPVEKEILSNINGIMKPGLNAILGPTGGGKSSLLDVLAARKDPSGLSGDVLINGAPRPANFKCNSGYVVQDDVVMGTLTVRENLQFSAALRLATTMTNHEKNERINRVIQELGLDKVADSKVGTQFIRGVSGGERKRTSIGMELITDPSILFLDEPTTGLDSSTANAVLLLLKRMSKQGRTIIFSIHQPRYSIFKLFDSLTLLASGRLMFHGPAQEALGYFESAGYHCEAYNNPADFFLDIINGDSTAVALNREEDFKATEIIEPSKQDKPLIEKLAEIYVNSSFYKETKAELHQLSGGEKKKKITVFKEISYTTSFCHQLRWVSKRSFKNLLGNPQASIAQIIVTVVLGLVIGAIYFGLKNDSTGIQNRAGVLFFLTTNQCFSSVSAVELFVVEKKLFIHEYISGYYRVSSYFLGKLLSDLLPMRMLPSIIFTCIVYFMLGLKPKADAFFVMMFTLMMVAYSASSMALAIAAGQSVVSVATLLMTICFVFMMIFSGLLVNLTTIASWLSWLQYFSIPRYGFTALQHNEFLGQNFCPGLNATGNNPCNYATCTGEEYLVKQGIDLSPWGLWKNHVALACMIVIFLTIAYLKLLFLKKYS
Sequence of PARP1 (P09874 whole entry): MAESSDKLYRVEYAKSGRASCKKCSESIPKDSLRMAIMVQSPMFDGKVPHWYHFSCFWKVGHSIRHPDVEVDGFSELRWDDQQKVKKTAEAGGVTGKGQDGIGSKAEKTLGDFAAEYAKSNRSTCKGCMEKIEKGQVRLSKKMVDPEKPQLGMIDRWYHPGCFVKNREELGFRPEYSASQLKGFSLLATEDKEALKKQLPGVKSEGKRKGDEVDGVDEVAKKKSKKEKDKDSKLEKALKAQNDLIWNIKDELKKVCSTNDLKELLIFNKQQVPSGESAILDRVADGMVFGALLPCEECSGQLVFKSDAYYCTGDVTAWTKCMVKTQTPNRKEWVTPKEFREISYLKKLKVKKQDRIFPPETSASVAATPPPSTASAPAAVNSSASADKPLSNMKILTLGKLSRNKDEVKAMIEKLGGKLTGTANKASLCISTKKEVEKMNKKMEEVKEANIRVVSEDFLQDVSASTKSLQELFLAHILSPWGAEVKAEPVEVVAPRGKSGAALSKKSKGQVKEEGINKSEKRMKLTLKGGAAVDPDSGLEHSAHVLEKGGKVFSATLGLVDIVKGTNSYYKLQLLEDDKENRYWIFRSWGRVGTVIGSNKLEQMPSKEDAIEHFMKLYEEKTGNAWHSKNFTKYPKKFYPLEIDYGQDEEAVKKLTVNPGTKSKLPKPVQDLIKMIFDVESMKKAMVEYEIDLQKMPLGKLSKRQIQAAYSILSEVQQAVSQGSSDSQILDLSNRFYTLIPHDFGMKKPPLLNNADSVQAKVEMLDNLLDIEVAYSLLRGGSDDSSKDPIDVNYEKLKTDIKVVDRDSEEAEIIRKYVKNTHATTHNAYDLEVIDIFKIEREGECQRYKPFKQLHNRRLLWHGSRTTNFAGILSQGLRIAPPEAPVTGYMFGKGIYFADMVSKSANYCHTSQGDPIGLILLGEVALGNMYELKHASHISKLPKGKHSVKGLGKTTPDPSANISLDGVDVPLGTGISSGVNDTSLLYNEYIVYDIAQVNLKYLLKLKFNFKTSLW
Sequence of PARP2 (Q9UGN5 whole entry): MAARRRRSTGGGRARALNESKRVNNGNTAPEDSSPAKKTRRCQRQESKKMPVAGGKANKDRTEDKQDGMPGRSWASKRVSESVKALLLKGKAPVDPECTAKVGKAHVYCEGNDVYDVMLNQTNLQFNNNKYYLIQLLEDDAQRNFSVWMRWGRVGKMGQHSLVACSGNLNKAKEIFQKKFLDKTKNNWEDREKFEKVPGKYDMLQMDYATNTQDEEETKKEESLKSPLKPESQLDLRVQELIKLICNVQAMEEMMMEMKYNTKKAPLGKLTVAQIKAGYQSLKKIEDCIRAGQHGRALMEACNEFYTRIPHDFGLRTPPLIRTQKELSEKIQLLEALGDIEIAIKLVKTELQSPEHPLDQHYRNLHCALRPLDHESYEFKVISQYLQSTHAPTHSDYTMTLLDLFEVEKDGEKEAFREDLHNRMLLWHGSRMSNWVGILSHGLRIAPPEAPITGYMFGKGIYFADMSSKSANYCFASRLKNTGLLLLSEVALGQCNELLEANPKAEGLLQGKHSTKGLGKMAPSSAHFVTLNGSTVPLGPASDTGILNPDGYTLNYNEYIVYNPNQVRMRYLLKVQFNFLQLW

One may read the EC50 as the midpoint of the concentration-response curve. As a reminder, the efflux ratio is a quotient of directional permeabilities that is used to spot active efflux. Regarding `CNC(=O)c1ccc(N2CCN(Cc3ccc4c([nH]c(=O)c5ccnn54)c3F)CC2)c(F)n1` [Example 1, 6-fluoro-5-[4-({6-fluoro-4-oxo-5H-pyrazolo[1,5-a]quinoxalin-7-yl}methyl)piperazin-1-yl]-N-methylpyridine-2-carboxamide], the values for the EC50 (in the data set with DLD-1 BRCA2(−/−) cells; in [1]; in the data set on DLD-1 parental cells) were 4.1 nM, 2.9 nM and more than 30000 nM, respectively. The Papp A→B at 2 h, 10 μM on BCRP turned out to be 21.7 ×10⁻⁶ cm/s; on MDR1 it was 15.9 ×10⁻⁶ cm/s. Also, the Papp B→A at 2 h, 10 μM on BCRP worked out at 20.4 ×10⁻⁶ cm/s; at MDR1 it was 29.6 ×10⁻⁶ cm/s. For the same compound, the efflux ratio at 2 h, 10 μM at BCRP was found to be 0.95; on MDR1 it was 1.87.
As to `CNC(=O)c1ccc(N2CCN(Cc3ccc4c5c(c(=O)[nH]c4c3F)CCO5)CC2)c(F)n1` [Example 9, 6-fluoro-5-[4-({6-fluoro-4-oxo-2H,3H,5H-furo[3,2-c]quinolin-7-yl}methyl)piperazin-1-yl]-N-methylpyridine-2-carboxamide], the EC50 in the data set on DLD-1 BRCA2(−/−) cells was 3.2 nM; in [1], 1.6 nM; in the data set with DLD-1 parental cells it was more than 30000 nM. Moreover, the Papp A→B at 2 h, 10 μM on BCRP came out at 26.7 ×10⁻⁶ cm/s; at MDR1, 19.4 ×10⁻⁶ cm/s. The Papp B→A at 2 h, 10 μM stood at 24.3 ×10⁻⁶ cm/s on BCRP and 31.4 ×10⁻⁶ cm/s at MDR1. Moreover, in data set [2], the “HHEP Clh” value is given as less than 3.3 mL/min/kg. Further, the “HLM Clh” value in data set [3] is less than 4 mL/min/kg.
In general, IC50 refers to the concentration that gives 50% inhibition. Read a low IC50 as greater potency. For `[2H]C([2H])([2H])NC(=O)c1ccc(N2CCN(Cc3ccc4c([nH]c(=O)c5ccnn54)c3F)CC2)c(F)n1` [Example 18], the results for the EC50 (with DLD-1 BRCA2(−/−) cells; in data set [1]; in the data set with DLD-1 parental cells) were 1.9 nM, 1.2 nM and more than 30000 nM, respectively. Moreover, the Papp A→B at 2 h, 10 μM on BCRP is 21.1 ×10⁻⁶ cm/s; on MDR1 it was 15.2 ×10⁻⁶ cm/s. For the same compound, the values for the Papp B→A at 2 h, 10 μM at BCRP and on MDR1 were 18.2 ×10⁻⁶ cm/s and 22.7 ×10⁻⁶ cm/s, respectively. Moreover, the efflux ratio at 2 h, 10 μM is 0.87 at BCRP and 1.5 on MDR1. For the same compound, the IC50 at PARP2 is more than 100000 nM; on PARP1, 6.2 nM.

The record behind these values is US11795173B1, “Substituted pyridines as PARP1 inhibitors” (Xinthera, Inc., priority 2022, dated 2023).
